These results are taken from article PMC11944513, “Investigation on Human Carbonic Anhydrase IX and XII Inhibitory Activity and A549 Antiproliferative Activity of a New Class of Coumarinamides” (Pharmaceuticals, 2025).

Data set [1] deals with normal bronchial epithelial cells (BEAS-2B). Nature of the data set: cell viability (MTT assay), BEAS-2B. The conditions noted are these: Homo sapiens, BEAS-2B, 48 h exposure, nonlinear regression, predictive estimates. It is filed as cell-based, human. On the procedure: Human bronchial epithelial (BEAS-2B; CRL-3588) and human lung carcinoma (A549; CCL-185) cell lines were obtained from ATCC®. BEAS and A549 cells were maintained in complete RPMI 1640 (Merck, Darmstadt, Germany) at 37 °C and 5% CO2. The medium was supplemented with 10% heat-inactivated fetal bovine serum (FBS), 1% penicillin/streptomycin and 1% sodium pyruvate.
(§1) Cells were seeded at different densities according to the different experimental techniques performed (MTT assay and cell cycle analysis) and left to adhere for 24 h. Next, the medium was removed, and cells were treated with tested compounds, dissolved in dimethyl sulfoxide (DMSO) to achieve concentrations ranging from 0 µM (untreated control = CTRL) to 150 µM. The final DMSO concentration was kept below 0.3%. Cell viability was evaluated at up to 72 h post-treatment. Images were acquired 48 h after treatments by means of a light phase-contrast microscope equipped with a camera (Leica). Images were acquired and analyzed by the Leica Application Suite LAS EZ version 3.4 (Leica, Wetzlar, Germany).
(§2) BEAS and A549 cells were seeded in 96-well culture-treated plates (Falcon®, Corning Incorporated, Brooklyn, NY, USA) at a density of 0.5 × 10^4 cells/well. Untreated cells were set as the experimental control, representing 100% of cell viability. Exposure times varied from 24 up to 72 h. At the established time points (24, 48 and 72 h), the exposure medium was replaced with fresh medium containing 0.5 mg/mL 3-(4,5-dimethylthiazol-2-yl)-2,5-diphenyltetrazolium bromide (MTT) (Merck, Darmstadt, Germany) and processed as previously reported. The optical density in each well was measured at a wavelength of 540 nm using a spectrophotometer (Thermo Fisher Scientific, Waltham, MA, USA). Each experiment was performed in triplicate per experimental conditions (n = 3).

Data set [2] concerns bronchial adenocarcinoma cells (A549). Nature of the data set: cell viability (MTT assay), A549. The note with it: Homo sapiens, A549, 48 h exposure, nonlinear regression, predictive estimates. It counts as cell-based, human. The method, then: The medium was supplemented with 10% heat-inactivated fetal bovine serum (FBS), 1% penicillin/streptomycin and 1% sodium pyruvate.
Cells were seeded at different densities according to the different experimental techniques performed (MTT assay and cell cycle analysis) and left to adhere for 24 h. […] The final DMSO concentration was kept below 0.3%. Cell viability was evaluated at up to 72 h post-treatment. Images were acquired 48 h after treatments by means of a light phase-contrast microscope equipped with a camera (Leica). Images were acquired and analyzed by the Leica Application Suite LAS EZ version 3.4 (Leica, Wetzlar, Germany).
as §2

The test system of data set [3] is A549 cells. Nature of the data set: cytotoxicity assay (LDH test). It is filed as cell-based, human. The conditions noted are these: A549, 0–150 µM, 24 h. On the procedure: as §1
To assess cytotoxicity in A549 cells after their treatment with the tested compounds, the amount of lactate dehydrogenase released into the culture medium was quantified using the CytoTox 96 non-radioactive cytotoxicity assay (Promega, Madison, WI, USA) according to the manufacturer’s instructions. Cell supernatants were collected from the same cultures processed for the MTT assay after 24 h of treatment and the optical density values obtained were normalized to those measured from the MTT assay.

For data set [4], the system named is A549 cells. Nature of the data set: cell cycle analysis (PI flow cytometry). It is filed as cell-based, human. The conditions noted are these: A549, 0–150 µM, 48 h; S phase cells increased vs untreated control. On the procedure: as §1
[…] At each time point, cells were detached using StemPro™ Accutase™, pelleted by centrifugation, and fixed overnight at 4 °C in 70% v/v cold ethanol. After fixation, cells were processed as described elsewhere. The PI fluorescence was detected by a flow cytometer equipped with a 488 nm laser (CytoFlex flow cytometer, Beckman Coulter, CA, USA) in the FL-3 channel. A minimum of 10,000 events/sample were acquired and analyzed with the CytExpert Software, version 2.3 (Beckman Coulter, CA, USA), and the percentages of cells in the G1, S, or G2 phase of the cell cycle were calculated using the ModFit LT™ Software, version 5.0 (Verity Software House, Topsham, ME, USA).

The target in the next data set is h-CA I (Homo sapiens, UniProt P00915). Nature of the data set: stopped-flow CO2 hydrase assay, h-CA I.
The target of the next data set is h-CA II (Homo sapiens, UniProt P00918). The data set is described as follows: stopped-flow CO2 hydrase assay, h-CA II.
For another data set, the target named is h-CA IX (Homo sapiens, UniProt Q16790). The data set is described as follows: stopped-flow CO2 hydrase assay, h-CA IX.
In the next data set the target is h-CA XII (Homo sapiens, UniProt O43570). Nature of the data set: stopped-flow CO2 hydrase assay, h-CA XII.

Structures are written as SMILES.

Chain of h-CA I (P00915 whole entry): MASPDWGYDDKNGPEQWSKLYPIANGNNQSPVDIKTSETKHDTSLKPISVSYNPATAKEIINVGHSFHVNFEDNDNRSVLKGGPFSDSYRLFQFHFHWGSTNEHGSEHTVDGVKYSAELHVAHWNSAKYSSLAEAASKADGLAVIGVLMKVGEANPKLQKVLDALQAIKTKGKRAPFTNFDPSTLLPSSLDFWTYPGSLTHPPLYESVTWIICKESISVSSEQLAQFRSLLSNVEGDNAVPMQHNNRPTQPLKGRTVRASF
Chain of h-CA XII (O43570 25-354): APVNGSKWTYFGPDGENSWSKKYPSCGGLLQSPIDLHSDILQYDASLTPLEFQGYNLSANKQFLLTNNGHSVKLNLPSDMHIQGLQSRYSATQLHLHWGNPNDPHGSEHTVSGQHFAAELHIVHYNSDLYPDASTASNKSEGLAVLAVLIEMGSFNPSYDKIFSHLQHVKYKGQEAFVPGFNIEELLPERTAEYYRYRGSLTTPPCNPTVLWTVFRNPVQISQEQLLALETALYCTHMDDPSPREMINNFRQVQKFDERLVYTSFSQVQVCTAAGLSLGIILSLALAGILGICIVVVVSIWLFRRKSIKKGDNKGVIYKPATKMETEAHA

As for `O=C(NCc1ccc(Cl)c(Cl)c1)c1cc2ccc(O)cc2oc1=O` [Compound 23, N-(3,4-Dichlorobenzyl)-7-Hydroxy-2-Oxo-2H-Chromene-3-Carboxamide], the IC50 in data set [1] is 73.4 ± 1.1 µM; in data set [2] it was 39.5 ± 1.06 µM. Further, the “cytotoxicity occurrence (LDH release)” value in the data set on A549 cells [3] is reported as “None of the compounds administered displayed cytotoxicity”. The “arrest of cell cycle progression” value with A549 cells [4] is “able to arrest cells at the G1/S checkpoint”. For the same compound, the Ki at h-CA I was over 100 µM; at h-CA II, over 100 µM; at h-CA IX, 46.2 µM; at h-CA XII, 21 µM.
